Drawing on ChEMBL document CHEMBL3991601, “The target landscape of clinical kinase drugs” (Science, 2017), this text covers Kd for 7 compounds.

Activity calls are given as the source filed them. Bounds are passed on as bounds.

Assay [1] concerns the target T1, Acyl-CoA dehydrogenase family member 10 (Homo sapiens, UniProt Q6JQN1).
T1 sequence (Q6JQN1 whole entry): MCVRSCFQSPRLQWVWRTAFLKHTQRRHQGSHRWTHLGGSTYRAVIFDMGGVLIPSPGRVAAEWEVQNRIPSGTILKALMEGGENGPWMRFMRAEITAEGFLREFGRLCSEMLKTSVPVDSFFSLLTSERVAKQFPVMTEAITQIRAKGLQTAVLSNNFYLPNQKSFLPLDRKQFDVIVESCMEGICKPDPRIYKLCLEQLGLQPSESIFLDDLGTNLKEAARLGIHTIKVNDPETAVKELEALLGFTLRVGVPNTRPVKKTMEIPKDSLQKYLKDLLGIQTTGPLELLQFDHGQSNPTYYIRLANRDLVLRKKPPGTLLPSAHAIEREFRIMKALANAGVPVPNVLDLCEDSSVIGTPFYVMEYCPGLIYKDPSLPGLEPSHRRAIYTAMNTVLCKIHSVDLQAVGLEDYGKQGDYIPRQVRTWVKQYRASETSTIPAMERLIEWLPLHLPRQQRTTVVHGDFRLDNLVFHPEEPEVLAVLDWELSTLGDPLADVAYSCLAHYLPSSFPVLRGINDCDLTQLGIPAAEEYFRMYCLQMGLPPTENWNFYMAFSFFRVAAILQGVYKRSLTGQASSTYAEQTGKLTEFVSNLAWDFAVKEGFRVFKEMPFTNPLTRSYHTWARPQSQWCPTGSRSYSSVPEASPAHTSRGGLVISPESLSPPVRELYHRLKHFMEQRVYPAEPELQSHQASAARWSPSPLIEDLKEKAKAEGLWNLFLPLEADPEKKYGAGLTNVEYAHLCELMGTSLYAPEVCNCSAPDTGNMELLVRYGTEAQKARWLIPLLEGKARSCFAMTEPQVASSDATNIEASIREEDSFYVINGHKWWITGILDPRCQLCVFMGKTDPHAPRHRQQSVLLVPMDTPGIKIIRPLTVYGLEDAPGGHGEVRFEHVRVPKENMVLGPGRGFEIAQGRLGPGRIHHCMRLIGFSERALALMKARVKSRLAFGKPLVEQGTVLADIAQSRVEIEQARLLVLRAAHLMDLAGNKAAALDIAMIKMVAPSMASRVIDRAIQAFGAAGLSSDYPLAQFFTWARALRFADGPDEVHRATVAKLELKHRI

The next assay addresses T2, Heme oxygenase 2 (Homo sapiens, UniProt P30519).
T2 sequence (P30519 whole entry): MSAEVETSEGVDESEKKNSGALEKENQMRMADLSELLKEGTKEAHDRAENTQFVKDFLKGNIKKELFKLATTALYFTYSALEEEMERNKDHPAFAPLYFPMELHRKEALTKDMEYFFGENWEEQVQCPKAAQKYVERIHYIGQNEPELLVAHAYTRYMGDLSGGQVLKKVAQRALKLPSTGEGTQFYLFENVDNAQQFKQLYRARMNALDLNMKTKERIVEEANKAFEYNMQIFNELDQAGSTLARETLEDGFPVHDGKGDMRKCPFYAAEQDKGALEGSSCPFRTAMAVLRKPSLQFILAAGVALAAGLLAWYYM

The target in assay [2] is Inosine-5'-monophosphate dehydrogenase 2 (Homo sapiens, UniProt P12268).
Assay [3] has as its target T3, Dual specificity mitogen-activated protein kinase kinase 6 (Homo sapiens, UniProt P52564).
T3 sequence (P52564 whole entry): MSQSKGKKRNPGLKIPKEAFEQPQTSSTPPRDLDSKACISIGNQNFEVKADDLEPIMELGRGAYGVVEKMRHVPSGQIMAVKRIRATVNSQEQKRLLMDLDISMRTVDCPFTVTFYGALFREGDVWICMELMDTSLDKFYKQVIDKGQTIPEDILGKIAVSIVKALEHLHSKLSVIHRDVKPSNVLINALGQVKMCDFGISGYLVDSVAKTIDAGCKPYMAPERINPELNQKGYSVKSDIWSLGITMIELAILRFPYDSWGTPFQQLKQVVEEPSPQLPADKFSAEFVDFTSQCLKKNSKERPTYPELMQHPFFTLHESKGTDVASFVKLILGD

The target in assay [4] is Mitogen-activated protein kinase 10 (Homo sapiens, UniProt P53779).
Sequence of Mitogen-activated protein kinase 10 (P53779 whole entry): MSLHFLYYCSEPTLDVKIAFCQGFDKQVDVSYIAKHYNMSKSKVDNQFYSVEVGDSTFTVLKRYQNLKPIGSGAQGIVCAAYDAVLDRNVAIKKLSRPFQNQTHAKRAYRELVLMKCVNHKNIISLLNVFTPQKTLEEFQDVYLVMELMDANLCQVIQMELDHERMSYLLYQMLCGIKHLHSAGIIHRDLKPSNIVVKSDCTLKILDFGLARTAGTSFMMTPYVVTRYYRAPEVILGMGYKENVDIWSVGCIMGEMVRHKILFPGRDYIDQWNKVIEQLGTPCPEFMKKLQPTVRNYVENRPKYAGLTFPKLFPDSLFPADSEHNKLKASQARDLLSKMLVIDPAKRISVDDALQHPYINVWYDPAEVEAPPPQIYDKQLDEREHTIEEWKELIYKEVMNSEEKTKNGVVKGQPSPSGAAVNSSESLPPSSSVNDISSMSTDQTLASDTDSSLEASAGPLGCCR
In assay [5] the target is Macrophage-stimulating protein receptor (Homo sapiens, UniProt Q04912).
Sequence of Macrophage-stimulating protein receptor (Q04912 25-304 limits assumed): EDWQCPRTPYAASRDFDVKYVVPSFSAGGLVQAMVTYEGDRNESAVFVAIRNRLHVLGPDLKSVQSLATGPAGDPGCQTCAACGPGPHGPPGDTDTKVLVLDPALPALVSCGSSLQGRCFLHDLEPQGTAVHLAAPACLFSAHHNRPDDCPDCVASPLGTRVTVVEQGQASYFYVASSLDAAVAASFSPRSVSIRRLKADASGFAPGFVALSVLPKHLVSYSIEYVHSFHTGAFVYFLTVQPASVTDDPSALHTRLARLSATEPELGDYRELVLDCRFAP
Sequence of Macrophage-stimulating protein receptor (Q04912 310-1400 limits assumed): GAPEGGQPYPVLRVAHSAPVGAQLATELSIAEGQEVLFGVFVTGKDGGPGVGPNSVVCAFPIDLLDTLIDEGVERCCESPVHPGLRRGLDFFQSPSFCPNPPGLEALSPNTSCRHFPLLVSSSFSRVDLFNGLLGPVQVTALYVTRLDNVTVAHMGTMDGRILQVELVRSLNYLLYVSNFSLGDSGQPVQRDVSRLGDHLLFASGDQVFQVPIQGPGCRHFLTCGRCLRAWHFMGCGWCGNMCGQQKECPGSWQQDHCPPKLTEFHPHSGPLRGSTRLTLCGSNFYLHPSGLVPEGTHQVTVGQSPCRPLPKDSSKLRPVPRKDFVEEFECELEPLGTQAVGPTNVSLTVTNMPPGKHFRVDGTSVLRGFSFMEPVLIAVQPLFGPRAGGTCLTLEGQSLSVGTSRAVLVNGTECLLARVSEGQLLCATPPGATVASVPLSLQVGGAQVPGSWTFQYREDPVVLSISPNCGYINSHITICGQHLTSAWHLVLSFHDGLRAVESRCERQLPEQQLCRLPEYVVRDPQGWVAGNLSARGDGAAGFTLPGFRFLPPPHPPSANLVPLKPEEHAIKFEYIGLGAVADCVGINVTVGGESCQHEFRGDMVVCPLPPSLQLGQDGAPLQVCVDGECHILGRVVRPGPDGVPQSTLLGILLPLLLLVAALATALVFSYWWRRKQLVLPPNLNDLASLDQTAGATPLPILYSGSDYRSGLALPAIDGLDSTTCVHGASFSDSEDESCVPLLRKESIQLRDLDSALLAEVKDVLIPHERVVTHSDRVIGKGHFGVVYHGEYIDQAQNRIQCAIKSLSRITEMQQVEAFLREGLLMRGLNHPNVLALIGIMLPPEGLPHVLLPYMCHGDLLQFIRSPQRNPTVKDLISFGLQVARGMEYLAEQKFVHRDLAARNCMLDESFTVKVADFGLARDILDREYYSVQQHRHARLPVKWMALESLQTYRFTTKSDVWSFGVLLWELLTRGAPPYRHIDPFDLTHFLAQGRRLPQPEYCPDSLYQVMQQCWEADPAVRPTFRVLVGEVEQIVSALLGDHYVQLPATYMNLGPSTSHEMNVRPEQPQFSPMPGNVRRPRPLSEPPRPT
Assay [6] addresses Serine/threonine-protein kinase N1 (Homo sapiens, UniProt Q16512).
For assay [7], the target named is Protein kinase C delta type (Homo sapiens, UniProt Q05655).
Sequence of Protein kinase C delta type (Q05655 whole entry): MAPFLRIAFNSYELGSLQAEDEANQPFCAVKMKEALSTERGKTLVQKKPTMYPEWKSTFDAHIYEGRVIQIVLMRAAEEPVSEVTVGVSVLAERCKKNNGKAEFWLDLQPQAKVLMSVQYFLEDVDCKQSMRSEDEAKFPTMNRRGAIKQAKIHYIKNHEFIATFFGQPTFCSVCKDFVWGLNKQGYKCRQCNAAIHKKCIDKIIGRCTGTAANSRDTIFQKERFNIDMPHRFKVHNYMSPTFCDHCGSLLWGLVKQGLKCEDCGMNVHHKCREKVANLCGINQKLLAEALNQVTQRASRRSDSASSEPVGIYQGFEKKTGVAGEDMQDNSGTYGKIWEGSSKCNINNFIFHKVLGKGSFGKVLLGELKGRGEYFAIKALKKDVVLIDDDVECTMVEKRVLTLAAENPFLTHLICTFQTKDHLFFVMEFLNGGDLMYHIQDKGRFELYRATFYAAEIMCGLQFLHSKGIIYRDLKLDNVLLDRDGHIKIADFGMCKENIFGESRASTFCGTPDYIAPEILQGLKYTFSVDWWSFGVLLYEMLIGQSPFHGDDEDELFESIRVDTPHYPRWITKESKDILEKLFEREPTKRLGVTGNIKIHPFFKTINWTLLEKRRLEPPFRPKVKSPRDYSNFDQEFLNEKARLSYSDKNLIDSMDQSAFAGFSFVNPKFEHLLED
Also: in the data inactive means no Kd found up to 30 µM.

Sequence of Serine/threonine-protein kinase N1 (Q16512 whole entry): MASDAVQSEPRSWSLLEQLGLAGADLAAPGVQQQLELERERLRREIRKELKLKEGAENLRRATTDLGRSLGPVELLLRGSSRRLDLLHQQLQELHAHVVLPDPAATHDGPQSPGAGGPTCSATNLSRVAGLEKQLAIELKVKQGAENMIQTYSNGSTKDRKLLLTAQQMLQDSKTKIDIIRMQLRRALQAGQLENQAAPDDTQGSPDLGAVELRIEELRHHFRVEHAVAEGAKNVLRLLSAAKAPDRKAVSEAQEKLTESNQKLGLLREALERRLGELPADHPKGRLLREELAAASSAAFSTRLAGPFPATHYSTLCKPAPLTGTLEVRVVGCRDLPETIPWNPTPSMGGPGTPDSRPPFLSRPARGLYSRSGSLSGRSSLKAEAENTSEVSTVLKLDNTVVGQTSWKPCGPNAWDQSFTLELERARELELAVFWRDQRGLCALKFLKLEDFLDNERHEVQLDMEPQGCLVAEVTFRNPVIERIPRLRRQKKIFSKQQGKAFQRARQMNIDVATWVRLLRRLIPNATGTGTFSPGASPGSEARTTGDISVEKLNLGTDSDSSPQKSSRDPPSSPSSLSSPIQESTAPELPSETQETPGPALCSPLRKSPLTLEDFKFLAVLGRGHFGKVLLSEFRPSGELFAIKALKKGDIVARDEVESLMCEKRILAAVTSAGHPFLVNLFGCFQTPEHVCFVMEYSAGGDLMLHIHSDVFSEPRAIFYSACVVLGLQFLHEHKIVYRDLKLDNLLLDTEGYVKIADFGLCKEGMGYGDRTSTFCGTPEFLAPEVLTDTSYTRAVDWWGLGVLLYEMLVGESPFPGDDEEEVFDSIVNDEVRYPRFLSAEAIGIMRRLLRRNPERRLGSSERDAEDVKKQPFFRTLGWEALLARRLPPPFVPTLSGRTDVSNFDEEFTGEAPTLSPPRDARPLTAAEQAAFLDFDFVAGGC

As to `Cc1ccc(-n2nc(C(C)(C)C)cc2NC(=O)NCc2cc(F)ccc2Oc2ccc3c(cnn3CCO)c2)cc1` [PEXMETINIB], the Kd – broadly, the free concentration of one partner at which half of the binding sites on the other are occupied at equilibrium, for simple one-to-one binding – in assay [1] was > 30 µM (inactive); on Heme oxygenase 2, > 30 µM (inactive); in assay [2], > 30 µM (inactive); in assay [3], > 30 µM (inactive); in assay [4] it was 0.195 µM; in assay [5], > 30 µM (inactive). The Kd in assay [6] and in assay [7] was > 30 µM (inactive) in each case.
As for `COCCNCc1ccc(-c2cc3nccc(Oc4ccc(NC(=S)NC(=O)Cc5ccc(F)cc5)cc4F)c3s2)nc1` [GLESATINIB], the Kd in assay [1] is > 30 µM (inactive); at Heme oxygenase 2 it was > 30 µM (inactive); in assay [2], > 30 µM (inactive); in assay [3], > 30 µM (inactive); in assay [4] it was > 30 µM (inactive); in assay [5], 2.32 µM (active). Also, the Kd in assay [6] and in assay [7] was > 30 µM (inactive) throughout.
In the case of `CC[C@H](Nc1ncnc2[nH]cnc12)c1nc2cccc(F)c2c(=O)n1-c1ccccc1` [IDELALISIB], the Kd (in assay [1]; on Heme oxygenase 2; in assay [2]; in assay [3]; in assay [4]; in assay [5]) was > 30 µM (inactive) in each case. Further, the Kd in assay [6] and in assay [7] was > 30 µM (inactive) each time.
In the case of `CN1CC[C@@H](c2c(O)cc(O)c3c(=O)cc(-c4ccccc4Cl)oc23)[C@@H]1CO`, the Kd (in assay [1]; on Heme oxygenase 2; in assay [2]; in assay [3]; in assay [4]; in assay [5]) was > 30 µM (inactive) throughout. Besides, the Kd is > 30 µM (inactive) in assay [6] and 2.39 µM (active) in assay [7].
Take `CN1N=C(N)c2cn([C@@H]3O[C@H](COP(=O)(O)O)[C@@H](O)[C@H]3O)c3ncnc1c23` [TRICIRIBINE PHOSPHATE]: the Kd (in assay [1]; on Heme oxygenase 2; in assay [2]; in assay [3]; in assay [4]; in assay [5]) was > 30 µM (inactive) throughout. Further, the Kd in assay [6] and in assay [7] was > 30 µM (inactive) in each case.
On to `O=C(c1ccc(F)c(F)c1Nc1ccc(I)cc1F)N1CC(O)([C@@H]2CCCCN2)C1` [COBIMETINIB], for which the Kd (in assay [1]; on Heme oxygenase 2; in assay [2]; in assay [3]; in assay [4]; in assay [5]) was > 30 µM (inactive) throughout. Further, the Kd in assay [6] and in assay [7] was > 30 µM (inactive) each time.
Consider `Cc1cc(-c2cc(O)ccc2Cl)cc2nnc(Nc3ccc(OCCN4CCCC4)cc3)nc12`, for which the Kd (in assay [1]; at Heme oxygenase 2; in assay [2]; in assay [3]; in assay [4]; in assay [5]) was > 30 µM (inactive) each time. Also, the Kd in assay [6] and in assay [7] was > 30 µM (inactive) throughout.
